Experimental data as given in patent publication US9132141B2 (priority 2012, dated 2015).

System: non-adapted human Wuhan H3N2 strain
Assay type: in vivo
Conditions: cotton rats

## CCCCCC/C=C\CCCCCCCCCC(=O)N[C@H]1[C@H](OC[C@H]2O[C@H](OP(=O)(O)O)[C@H](NC(=O)CC(=O)CCCCCCCCCCC)[C@@H](OCCCCCCCCCC)[C@@H]2O)O[C@H](COC)[C@@H](OP(=O)(O)O)[C@@H]1OCC[C@@H](CCCCCCC)OC [eritoran, α-D-Glucopyranose, 3-O-decyl-2-deoxy-6-O-[2-deoxy-3-O-[(3R)-3-methoxydecyl)-6-O-methyl-2-[[(-11Z)-1-oxo-11-octadecenyl)amino]-4-O-phosphono-β-D-glucopyranosyl]-2-[(1,3-dioxotetradecyl)amino]-1-(dihydrogen phosphate)]
  lung expression of IL-6 and IL-10: decreased lung expression of IL-6 and IL-10
